Reference: patent US20200085778A1, “Agent for Promoting Decomposition and Clearance of Amyloid-Beta” (Kao Corporation, priority 2017, published 2020)

Target: T1, aggregated amyloid-β (amyloid-β peptide, Human, 1-42) (Homo sapiens, UniProt P05067)
T1 construct: An amyloid-β peptide (Human, 1-42, Peptide Institute, Inc.); purchased Peptide Institute, Inc
Test: thioflavin T (ThT) fluorescence assay of degrading aggregated amyloid
Assay type: biochemical
Conditions: final concentration 1, 10, or 100 μM, 37° C. for 7 days, vs 0.5% DMSO control; FIG. 1
Protocol: The direct activity of degrading aggregated amyloid by chlorogenic acid (5-CQA) was examined using a thioflavin T (ThT) fluorescence assay. An amyloid-β peptide (Human, 1-42, Peptide Institute, Inc.) was dissolved in dimethyl sulfoxide (DMSO) to 2.5 mM and was further adjusted to 250 μM with sterile water, followed by incubation at 37° C. for 7 days to promote the aggregation reaction. After the reaction, chlorogenic acid (5-CQA, Cayman Chemical Company) was added to the aggregated amyloid-β (10 mass %) at a final concentration of 1, 10, or 100 μM, followed by further incubation at 37° C. for 7 days. As a control, 0.5% DMSO, which was used as the solvent of the chlorogenic acid, was added. After the reaction, ThT (Sigma-Aldrich, final concentration: 5 μM) dissolved in 50 mM glycine buffer (pH 8.5) was added to the reaction solution in a 96-well plate (ThermoFisher Scientific), followed by a reaction at room temperature for 15 minutes while gently stirring under light shielding. After the reaction, fluorescence was detected at 450 nm (excitation) and 480 nm (emission) using a fluorescence plate reader (Ensight 3400, PerkinElmer Co., Ltd.) to measure the degree of aggregation of amyloid-β.

T1 sequence (P05067 672-713): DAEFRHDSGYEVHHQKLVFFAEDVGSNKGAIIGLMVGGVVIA

Compound: O=C(/C=C/c1ccc(O)c(O)c1)O[C@@H]1C[C@](O)(C(=O)O)C[C@@H](O)[C@H]1O [chlorogenic acid, 5-caffeoylquinic acid]
- activity of degrading aggregated amyloid (degree of aggregation of amyloid-β, ThT fluorescence): has an activity of degrading aggregated amyloid in a dose-dependent manner
